# Data from patent US20040156742A1, “Synergistically-effective cyclohexylethan-1-yl ester mixtures as malodour counteractants as measured physiologically and psychometrically and methods for using same” (priority 2003, published 2004).
# Assay: Adaptation curves: % odour pulses correctly identified versus inter-stimulus interval (FIGS. 9C, 9D)
# Assay type: in vivo, human
# Conditions: pulse length 200 microseconds
# Text: as it applies to individual malodour molecules and individual fragrance molecules is set forth in Jacob et al., “Psychometric Evaluation of Responses to Pleasant and Malodour Stimulation in Human Subjects; Adaptation, Dose Response and Gender Differences”, Int. J. Psychophysiology, (2003). An additional discussion of the model as it applies to olfaction is set forth in Wang et al., “The correlation between physiological and psychological responses to odor stimulation in human subjects” Clinical Neurophysiology 113 (2002) 542-551 at page 546.
# wherein Z is the percentage of odour pulses correctly identified;
# Y is the pulse duration, or “pulse length” measured in units of microseconds; and
# X is the inter-stimulus interval, “ISI”, measured in units of seconds.
# FIG. 9C is a set of adaptation curves for the malodour, n-butyric acid, with the vertical axis being the “Z” axis, indicated by reference numeral 90C and the horizontal axis being the “X” axis indicated by reference numeral 92C. The graph indicated by reference numeral 97C and data points therefor 970C is for a pulse length of 35 microseconds. The graph indicated by reference numeral 96C and data points therefor 960C is for a pulse length of 50 microseconds. The graph indicated by reference numeral 95C and data points therefor 950C is for a pulse length of 75 microseconds. […]
SMILES,"percentage of odour pulses correctly identified, Z (point 990C on curve 93C: inter-stimulus interval X1=12 seconds, FIG. 9C)","percentage of odour pulses correctly identified, Z (point 990D on curve 93D: inter-stimulus interval X1=15 seconds, FIG. 9D)"
CCCC(=O)O [n-butyric acid],75%,–
CCCCCOC(C)=O [amyl acetate],–,54%
